Source: USRE39050E1, “Methods of use for inhibiting bone loss and lowering serum cholesterol” (Eli Lilly and Company, priority 1994, dated 2006)
Structures can show the parent of a compound that is named as a salt. Marks after values point to notes of the source that are not given here.

What was measured:
[1] = test system: healthy post-menopausal women; assay: 8-week parallel, double-blind, placebo study: markers of bone metabolism (GGGC); type: in vivo, human; settings: 8 weeks
Procedure: (§1) An 8-week parallel, double-blind, placebo study in approximately 160 healthy post-menopausal women was completed. The doses of raloxifene used in this study were 10, 50, and 200 mg. […] (See Table I) Because of development over time seen with many bone markers, a raloxifene dose of 50 mg/day will likely be fully active when evaluated during a study of longer duration.

[2] = test system: healthy post-menopausal women; assay: 8-week parallel, double-blind, placebo study: serum lipids (GGGC); type: in vivo, human; settings: 8 weeks
Procedure: as §1
Serum lipid levels were affected by raloxifene doses of 50 and 200 mg (Table II).

`O=C(c1ccc(OCCN2CCCCC2)cc1)c1c(-c2ccc(O)cc2)sc2cc(O)ccc12` [Raloxifene, 6-hydroxy-2-(4-hydroxyphenyl)-3[4-(2-piperidinoethoxy)benzoyl]benzo[b]thiophene, hydrochloride] was tested, and the “activity with either bone marker (in words)” value ([1]; 10 mg dose) was “no significant activity”, the “Serum alkaline phosphatase, mean group change from baseline to endpoint” value ([1]; raloxifene 10 mg, n = 42) was 0.21 U/L and the “Serum osteocalcin, mean group change from baseline to endpoint” value (from here on “Serum osteocalcin, mean group change”) ([1]; raloxifene 10 mg, n = 42) was -0.27 ng/mL. For the same compound, the “Serum alkaline phosphatase, mean group change from baseline to endpoint” value ([1]; raloxifene 50 mg, n = 42) was −4.78 U/L, the “Serum osteocalcin, mean group change” value ([1]; raloxifene 50 mg, n = 42) was -0.81 ng/mL and the “Serum alkaline phosphatase, mean group change from baseline to endpoint” value ([1]; raloxifene 200 mg, n = 41) was −5.93* U/L. The “Serum osteocalcin, mean group change” value ([1]; raloxifene 200 mg, n = 41) was −1.21* ng/mL, the “LDL cholesterol (in words)” value ([2]; 50 mg) was “Decreases” and the “LDL cholesterol (in words)” value ([2]; 200 mg) was “comparable decrease”. For the same compound, the “HDL:LDL ratios (in words)” value ([2]; both the 50 and 200 mg doses) was “Statistically significant decreases”, the “total serum cholesterol levels (in words)” value ([2]; both the 50 and 200 mg doses) was “Statistically significant decreases” and the “HDL-C, mean group change from baseline to endpoint” value (“HDL-C, mean group change” for short) ([2]; raloxifene 10 mg, n = 42) was 0.01 mmol/L. For the same compound, the “HDL-C:LDL-C ratio, mean group change from baseline to endpoint” value (“HDL-C:LDL-C ratio, mean group change” for short) ([2]; raloxifene 10 mg, n = 42) was 0.00, the “LDL-C, mean group change from baseline to endpoint” value (“LDL-C, mean group change” for short) ([2]; raloxifene 10 mg, n = 42) was 0.05 mmol/L and the “Toal cholesterol, mean group change from baseline to endpoint” value (“Toal cholesterol, mean group change” for short) ([2]; raloxifene 10 mg, n = 42) was 0.01 mmol/L. For the same compound, the “HDL-C, mean group change” value ([2]; raloxifene 50 mg, n = 42) was 0.04 mmol/L, the “HDL-C:LDL-C ratio, mean group change” value ([2]; raloxifene 50 mg, n = 42) was 0.03* and the “LDL-C, mean group change” value ([2]; raloxifene 50 mg, n = 42) was −0.23* mmol/L. For the same compound, the “Toal cholesterol, mean group change” value ([2]; raloxifene 50 mg, n = 42) was −0.23* mmol/L, the “HDL-C, mean group change” value ([2]; raloxifene 200 mg, n = 41) was 0.02 mmol/L and the “HDL-C:LDL-C ratio, mean group change” value ([2]; raloxifene 200 mg, n = 41) was 0.03*. The “LDL-C, mean group change” value ([2]; raloxifene 200 mg, n = 41) was -0.17 mmol/L, the “Toal cholesterol, mean group change” value ([2]; raloxifene 200 mg, n = 41) was -0.15 mmol/L and the “HDL levels (in words)” value ([2]; raloxifene-treated subjects) was “no changes”.
